In patent publication US20260209152A1, “Substituted Hydroxystilbene Compounds and Derivatives, Synthesis and Uses Thereof” (Kynan Duke IP, LLC, priority 2019, published 2026):
Entries after “also recorded” stand apart in the source; their conditions may differ. Read-outs that look alike come from different tables or passages of the source. Blank lines part the entries; values can stand above or below the molecule they belong to.

Columns and labels:
[1] = system: Pancreatic MIA PaCa-2; experiment: CellTiter Glo cell viability assay; format: cell-based, human
Experimental: (§1) 1.7*10^3 cells/well were seeded in quadruplicates in 96-well plate after plating. Drugs were added at 5 μM and 2-fold dilutions over 18 concentrations (0.000038146-5 M concentration range) to generate a dose-response curve. Cell growth was assessed on day 1, 3 and 5 after drug treatments using the CellTiter Glo Luminescence Cell Viability Assay (Promega) according to manufacturer's protocol. Thermo Scientific Varioskan LUX Multimode Microplate instrument was used for plate reading. Data are expressed as mean luminescence (arbitrary units) ±S.D.
(§2) Cell Viability Assays were employed to determine the concentration of Compound 1 (KYN-001) and analogues where the response is reduced by half. For each treatment of cancer cells, 1, 2, 5, 10 and 20 μM solutions of compounds were applied. GraphPad Prism 7 software was used to fit dose response curves. Relative Luminescence Units were plotted against the log values of the doses used and the nonlinear regression model was used for data analysis.
(§3) The protocol for cell proliferation was optimized for Compound 8 (KYN-119) to enable a more accurate assessment of its low IC50 value. In this protocol, 18 dosages (2 fold dilutions ranging from 0.000038146 to 5 μM) were applied to cells seeded in 96-well plates, and Luminescence was measured after 1, 3 and 5 days upon treatments.
Day 3 upon treatment of MIA PaCa_2 pancreatic cancer cells, 24 h after plating (11 dilutions), as assessed by CellTiter Glow Assay.

[2] = system: Cancer cells including pancreatic, bladder, kidney, colon, breast, lung, liver and osteosarcomas; experiment: CellTiter Glo cell viability assay, panel of cancer cell lines; format: cell-based, human; details: for Cancer cell viability inhibition, statement in words: SAR discussion based on IC50 values in Tables 1 to 5, compared with 1 [KYN-001]; for Fold reduction in cancer cell viability inhibition vs 1 [KYN-001]: cell lines tested
Experimental: Compounds 1 to 15 were evaluated and their effect on cancer growth examined in cell viability assays on multiple cancer types (Tables 1 to 5). Cancer cells including pancreatic, bladder, kidney, colon, breast, lung, liver and osteosarcomas obtained from ATCC (American Type Culture Collection) were authenticated before use by Short Tandem Repeat genomic analysis (Reid Y, Storts D, Riss T and Minor L. Authentication of Human Cell Lines by STR DNA Profiling Analysis. 2013 May 1. In: Markossian S, Sittampalam G S, Grossman A, et al., editors. Assay Guidance Manual. Bethesda (MD): Eli Lilly & Company and the National Center for Advancing Translational Sciences; 2004.). Experimental protocol for each cancer cell line was verified and optimized according to literature reports before use (Tables 1 to 3).
as §1, §2, §3

[3] = system: Bladder RT-112; experiment: CellTiter Glo cell viability assay; format: cell-based, human; details: Homo sapiens
Experimental: as §1, §2, §3

[4] = system: Kidney ACHN; experiment: CellTiter Glo cell viability assay; format: cell-based, human; details: Homo sapiens, ACHN, read-out: IC50
Experimental: as §1, §2, §3

[5] = system: Kidney A-498; experiment: CellTiter Glo cell viability assay; format: cell-based, human
Experimental: as §1, with “Drugs were added at 5 μM and 2-fold dilutions over 18 concentrations (0.000038146-5 M concentration range) to generate a dose-response curve.” left out
as §2, with “For each treatment of cancer cells, 1, 2, 5, 10 and 20 μM solutions of compounds were applied.” left out
The protocol for cell proliferation was optimized for Compound 8 (KYN-119) to enable a more accurate assessment of its low IC50 value. […]

[6] = system: Pancreatic CAPAN-1; experiment: CellTiter Glo cell viability assay; format: cell-based, human; details: Homo sapiens, CAPAN-1, 72 h; Table 4: 3 Days of treatment; 18 2-fold dilutions 5-0.00003 μM; Average (1, 8) or single Exp A-D; read-out: IC50
Experimental: as §1, §2, §3

[7] = system: Lung NCI-H1299; experiment: CellTiter Glo cell viability assay; format: cell-based, human; details: Homo sapiens, NCI-H1299, 72 h
Experimental: as §1, §2, §3

[8] = system: Kidney CRL-1611; experiment: CellTiter Glo cell viability assay; format: cell-based; details: Homo sapiens, 72 h; Day 3 upon drug treatment; 10 dosages 0.0001-20 μM; read-out: IC50
Experimental: as §1, §2, §3

[9] = system: Colon SW_480; experiment: CellTiter Glo cell viability assay; format: cell-based, human; details: Homo sapiens, SW480, 72 h; Day 3 upon drug treatment; 10 dosages 0.0001-20 μM; read-out: IC50
[10] = system: Breast MDA-MB-231; experiment: CellTiter Glo cell viability assay; format: cell-based, human; details: Homo sapiens, read-out: IC50
Experimental: as §1, §2, §3

[11] = system: Bladder 5637; experiment: CellTiter Glo cell viability assay; format: cell-based, human; details: Homo sapiens, 120 h; Day 5 upon drug treatment; 10 dosages 0.0001-20 μM (Compound 8: 18 dosages 0.000038146 to 5 μM); read-out: IC50
Experimental: as §1, §2, §3

[12] = system: Colon HCT_116; experiment: CellTiter Glo cell viability assay; format: cell-based, human; details: Homo sapiens, HCT-116, 120 h; Day 5 upon drug treatment; 10 dosages 0.0001-20 μM (Compound 8: 18 dosages 0.000038146 to 5 μM); read-out: IC50
Experimental: as §1, §2, §3

[13] = Homo sapiens, MIA PaCa-2, Table 5A: 11 dilutions 3-0.00001 μM, single experiments Exp E-K, read-out: IC50
[14] = Table 5A: 11 dilutions 3-0.00001 μM, single experiments Exp E-K, read-out: IC50
[15] = RT-112, 72 h, Table 4: 3 Days of treatment, 18 2-fold dilutions 5-0.00003 μM, Average (1, 8) or single Exp A-D, read-out: IC50
[16] = 72 h, Table 4: 3 Days of treatment, 18 2-fold dilutions 5-0.00003 μM, Average (1, 8) or single Exp A-D
[17] = Homo sapiens, A498, 72 h, Table 4: 3 Days of treatment, 18 2-fold dilutions 5-0.00003 μM, Average (1, 8) or single Exp A-D, read-out: IC50
[18] = Homo sapiens, A498, Table 5A: 11 dilutions 3-0.00001 μM, single experiments Exp E-K, read-out: IC50
[19] = Homo sapiens, MIA PaCa-2, 72 h, Day 3 upon drug treatment, 10 dosages 0.0001-20 μM, read-out: IC50
[20] = RT-112, 72 h, Day 3 upon drug treatment, 10 dosages 0.0001-20 μM, read-out: IC50
[21] = MDA-MB-231, 72 h, Day 3 upon drug treatment, 10 dosages 0.0001-20 μM
[22] = Homo sapiens, MIA PaCa-2, 120 h, Day 5 upon drug treatment, 10 dosages 0.0001-20 μM (Compound 8: 18 dosages 0.000038146 to 5 μM), read-out: IC50
[23] = RT-112, 120 h, Day 5 upon drug treatment, 10 dosages 0.0001-20 μM (Compound 8: 18 dosages 0.000038146 to 5 μM), read-out: IC50
[24] = 120 h, Day 5 upon drug treatment, 10 dosages 0.0001-20 μM (Compound 8: 18 dosages 0.000038146 to 5 μM)
[25] = MDA-MB-231, 120 h, Day 5 upon drug treatment, 10 dosages 0.0001-20 μM (Compound 8: 18 dosages 0.000038146 to 5 μM)

IC50 [1, 13]: 0.1 to 1 µM
IC50 [1, 14]: 0.115 µM
IC50 [4, 16]: 0.609 µM
Compound: CCCOc1cc(O)cc(/C=C/c2ccc(O)c(OC)c2)c1CC=C(C)C [Compound 9, (E)-3-(4-hydroxy-3-methoxystyryl)-4-(3-methylbut-2-en-1-yl)-5-propoxyphenol]
Cancer cell viability inhibition, statement in words [2]: comparable or weaker biological activity
IC50 [3, 15]: 0.022 µM
IC50 [5, 17]: 0.019 µM
IC50 [5, 18]: 0.1 to 1 µM
IC50 [5, 14]: 0.147 µM

IC50 [4, 16]: 0.0409 µM
Compound: COc1cc(C=Cc2cc(O)cc(OC(C)C)c2CC=C(C)C)ccc1O [Compound 10, 3-(4-Hydroxy-3-methoxystyryl)-5-isopropoxy-4-(3-methylbut-2-en-1-yl)phenol]
IC50 [3, 15]: 0.0256 µM
IC50 [6]: 2.24 µM
IC50 [5, 17]: 0.0371 µM
IC50 [5, 18]: 0.1 to 1 µM
IC50 [5, 14]: 0.126 µM

IC50 ([1]; Homo sapiens, MIA PaCa-2, 72 h, Table 4: 3 Days of treatment, 18 2-fold dilutions 5-0.00003 μM, Average (1, 8) or single Exp A-D, read-out: IC50): 0.665 µM
IC50 ([7]; Table 4: 3 Days of treatment, 18 2-fold dilutions 5-0.00003 μM, Average (1, 8) or single Exp A-D, read-out: IC50): 0.193 µM
Compound: COc1cc(/C=C/c2cc(O)cc(OC(F)(F)F)c2CC=C(C)C)ccc1O [Compound 11, (E)-3-(4-hydroxy-3-methoxystyryl)-4-(3-methylbut-2-en-1-yl)-5-(trifluoromethoxy)phenol]
IC50 [3, 15]: 0.0392 µM
IC50 [5, 17]: 0.104 µM

Compound: CCOc1cc(C=Cc2cc(O)cc(OC)c2CC=C(C)C)ccc1O [Compound 12, 3-(3-Ethoxy-4-hydroxystyryl)-5-methoxy-4-(3-methylbut-2-en-1-yl)phenol]
IC50 ([1]; Homo sapiens, MIA PaCa-2): 1.09 µM
Fold reduction in cancer cell viability inhibition vs 1 [KYN-001] [2]: approximately 10
IC50 ([3]; RT-112, 72 h): 0.347 µM
IC50 [7]: 0.827 µM
IC50 ([5]; Homo sapiens, A498, 72 h, Table 4: 3 Days of treatment, 18 2-fold dilutions 5-0.00003 μM, Average (1, 8) or single Exp A-D): 0.822 µM

IC50 [1, 19]: 3 µM
Compound: CCc1cc(/C=C/c2cc(O)cc(OC)c2CC=C(C)C)ccc1O [Compound 13, (E)-3-(3-Ethyl-4-hydroxystyryl)-5-methoxy-4-(3-methylbut-2-en-1-yl)phenol]
IC50 [3, 20]: 0.949 µM
IC50 [8]: 2.12 µM
IC50 [9]: 26.5 µM

IC50 [1, 19]: 3.47 µM
IC50 [10, 21]: ~10.6 µM
Compound: COc1cc(O)cc(/C=C/c2ccc(O)c(SC)c2)c1CC=C(C)C [Compound 14, (E)-3-(4-Hydroxy-3-(methylthio)styryl)-5-methoxy-4-(3-methylbut-2-en-1-yl)phenol]
IC50 [3, 20]: 1.33 µM
IC50 [8]: 2.96 µM

IC50 [1, 22]: 0.182 µM
IC50 [1, 13]: 1.15 µM
IC50 [12]: 0.353 µM
IC50 [4, 24]: 0.283 µM
IC50 [10, 25]: 0.246 µM
Compound: COc1cc(/C=C/c2cc(O)cc(OC)c2CC=C(C)C)cc(C)c1O [Compound 17, (E)-4-(5-Hydroxy-3-methoxy-2-(3-methylbut-2-en-1-yl)styryl)-2-methoxy-6-methylphenol]
Cancer cell viability inhibition, statement in words [2]: marginally less potent than the parent compound 1
Fold reduction in cancer cell viability inhibition vs 1 [KYN-001] [2]: approximately 3
IC50 [3, 23]: 0.115 µM
IC50 [11]: 0.104 µM
IC50 [5, 18]: 0.1 to 1 µM
IC50 [5, 14]: 0.142 µM

IC50 [10, 25]: 6.2 µM
Compound: COc1cc(/C=C/c2cc(O)cc(OC)c2CC=C(C)C)ccc1[N+](=O)[O-] [Compound 22, (E)-3-Methoxy-5-(3-methoxy-4-nitrostyryl)-4-(3-methylbut-2-en-1-yl)phenol]
Cancer cell viability inhibition, statement in words [2]: Loss of the anti-proliferative effect

IC50 [1, 22]: 0.18 µM
IC50 [12]: 0.474 µM
IC50 [4, 24]: 0.26 µM
IC50 [10, 25]: 0.138 µM
Compound: COc1cc(/C=C/c2cc(O)cc(OC)c2CC=C(C)C)ccc1N [Compound 23, (E)-3-(4-Amino-3-methoxystyryl)-5-methoxy-4-(3-methylbut-2-en-1-yl)phenol]
Cancer cell viability inhibition, statement in words [2]: marginally less potent than the parent compound 1; also recorded: activity similar to but overall reduced
IC50 [3, 23]: 0.0682 µM
IC50 [11]: 0.0653 µM

IC50 [1, 22]: 0.185 µM
IC50 [12]: 0.627 µM
IC50 [4, 24]: 0.281 µM
IC50 [10, 25]: 0.155 µM
Compound: COc1cc(/C=C/c2cc(O)cc(OC)c2CC=C(C)C)ccc1NC(C)=O [Compound 29, (E)-N-(4-(5-hydroxy-3-methoxy-2-(3-methylbut-2-en-1-yl)styryl)-2-methoxyphenyl)acetamide]
Cancer cell viability inhibition, statement in words [2]: marginally less potent than the parent compound 1
IC50 [3, 23]: 0.0764 µM
IC50 [11]: 0.0674 µM

IC50 [1, 22]: 0.0968 µM
IC50 [1, 13]: 2.04 µM
IC50 [12]: 0.68 µM
IC50 [4, 24]: 2.84 µM
IC50 [10, 25]: 0.169 µM
Compound: COC(=O)CNc1ccc(/C=C/c2cc(O)cc(OC)c2CC=C(C)C)cc1OC [Compound 33, Methyl (E)-(4-(5-hydroxy-3-methoxy-2-(3-methylbut-2-en-1-yl)styryl)-2-methoxyphenyl)glycinate]
Cancer cell viability inhibition, statement in words [2]: marginally less potent than the parent compound 1
IC50 [3, 23]: 0.0955 µM
IC50 [11]: 0.0859 µM

IC50 [1, 19]: 20.4 µM
IC50 [10, 21]: ~10.3 µM
Compound: COc1cc(/C=C/c2cc(O)cc(OC)c2Br)ccc1O [Compound 45, (E)-4-Bromo-3-(4-hydroxy-3-methoxystyryl)-5-methoxyphenol]
IC50 [9]: 10.8 µM
